This is an account of results in patent US5229398A, “Aminomethylpiperidine compounds” (Adir et Compagnie, priority 1990, dated 1993).

The structures appear in SMILES notation. Structures can show the parent of a compound that is named as a salt. Where two headings read alike, the source gives them in different places.

Experiment [1] concerns the target T1, 5-HT1A receptors (Rattus norvegicus, UniProt P19327).
T1 sequence (P19327 1-422): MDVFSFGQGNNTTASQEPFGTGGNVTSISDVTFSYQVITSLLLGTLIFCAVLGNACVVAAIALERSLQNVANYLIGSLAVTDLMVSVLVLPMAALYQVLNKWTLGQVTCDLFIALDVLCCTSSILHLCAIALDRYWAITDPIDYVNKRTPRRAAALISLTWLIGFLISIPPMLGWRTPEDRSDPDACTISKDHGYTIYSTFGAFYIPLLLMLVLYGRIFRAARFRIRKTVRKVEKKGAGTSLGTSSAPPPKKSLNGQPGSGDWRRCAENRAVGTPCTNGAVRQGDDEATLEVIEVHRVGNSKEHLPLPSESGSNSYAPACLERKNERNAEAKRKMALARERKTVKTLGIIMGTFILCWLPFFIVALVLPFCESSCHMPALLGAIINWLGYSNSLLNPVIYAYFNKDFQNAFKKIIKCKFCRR
Put plainly: Affinity for 5-HT1A receptors in vitro ([3H]-8-OH-DPAT binding, rat hippocampus membranes). More on the design: from tissue; host or cells: hippocampus membranes of male Wistar rats; species or system male Wistar rats. Here is the method:
The tests were carried out on tissue from the hippocampus of decapitated male Wistar rats. The rats were sacrificed 48 hours before the experiment and the isolated tissues were preserved at -86° C.
In order to prepare the membranes, the tissues were homogenized at 0° C. in 20 volumes of 50 mM Tris HCl buffer solution (pH 7.7, adjusted with 5N HCl at 25° C.), with a Polytron homogenizer for 6 seconds. The whole was then centrifuged (35,000 g for 20 minutes at 4° C.). Homogenization followed by centrifugation was repeated a second time under the same conditions. The pellet thus obtained was suspended for a final time in 20 volumes of the above buffer, incubated for 15 minutes at 37° C., then again centrifuged. […]
The compounds to be tested were put into solution in the incubation buffer. Test solutions were prepared by placing in 12×75 mm glass tubes, 10 μl of the solution of the compounds to be tested, 100 μl of a solution containing […] of [^3 H]-8-OH-DPAT (specific radioactivity 205 Ci/mmol). Non-specific binding was determined with the aid of a solution of 5-hydroxytryptamine (10 μM), and represented 5 to 10% of the final binding. […] Radioactivity was then determined with the aid of external standards.
The pKi values were determined by the CheungPrusoff equation: [formula]

In experiment [2] the target is T1, 5-HT1A receptors. Kind of experiment: In vivo test of "tail-flicks" (antagonism of 8-OH-DPAT-induced spontaneous tail movements). More on the design: from tissue; host or cells: whole rat in vivo. The note with it: subcutaneous injection; for ED50: sc, against subcutaneous 8-OH-DPAT, read-out: ED50, the amount which reduces the action of 8-OH-DPAT by 50%. From the text:
The potential of the compounds of the invention to act in vivo on the 5-HT1A receptors was brought out following a method perfected by Millan et al. (Neurosci. Lett., 1989, 107, 227-232). […] This model then was used to evaluate the potential of the compounds of the invention administered by subcutaneous injection, to interact with the 5-HT1A receptors in the rat. The ED50, that is the amount which reduces the action of 8-OH-DPAT by 50%, was thus determined.

Experiment [3] concerns the target T1, 5-HT1A receptors. Also on record: The tests were carried out on tissue from the hippocampus of decapitated male Wistar rats; from tissue; host or cells: hippocampus membranes of male Wistar rats. The note with it: reference ligand 8-OH-DPAT; cited from earlier work.
The target of experiment [4] is T1, 5-HT1A receptors. Also on record: from tissue; host or cells: whole rat in vivo. The note with it: subcutaneous injection; cited from earlier work.

With `COc1ccccc1OCCNCC1CCN(c2nc3ccccc3o2)CC1.Cl.Cl` [Example 44, 1-(BENZOXAZOL-2-YL)-4-[[2-(2-METHOXYPHENOXY)ETHYL]AMINOMETHYL]PIPERIDINE DIHYDROCHLORIDE], the Ki on 5-HT1A receptors [1] (rat hippocampus, [3H]-8-OH-DPAT, 30 minutes at 37° C., pKi by CheungPrusoff equation, read-out: pKi (converted)) was 1 nM. Further, on 5-HT1A receptors [2], the median effective dose (ED50) (as a rule, the dose that gives a 50% effect, or the effect in half of the subjects) came to 0.31 mg/kg and the “properties towards the 5-HT1A receptors (in words)” value is reported as “antagonist properties”.
In turn, `COc1cccc2c1OC(CNCC1CCN(c3nc4ccccc4s3)CC1)CO2` (stereo not drawn) [Example 16, 1-(BENZOTHIAZOL-2-YL)-4-[(8-METHOXY-1,4-BENZODIOXAN-2-YL)-METHYLAMINOMETHYL]PIPERIDINE DIHYDROCHLORIDE] gave a Ki on 5-HT1A receptors [1] of 0.501 nM. In addition, at 5-HT1A receptors [2], the ED50 was 0.31 mg/kg and the “properties towards the 5-HT1A receptors (in words)” value is on record as “antagonist properties”.
In the case of `CCCN(CCC)C1CCc2cccc(O)c2C1` (stereo not drawn) [Example 8-OH-DPAT, 8-hydroxy-2-(dipropylamino)tetraline], on 5-HT1A receptors [3], the “affinity for the 5-HT1A sites of the reference (in words)” value is reported as “very great affinity” and the “selectivity for the 5-HT1A sites of the reference (in words)” value is on record as “great selectivity”. Besides, the “induction of spontaneous movements of the tail (in words)” value on 5-HT1A receptors [4] is reported as “marked spontaneous movements of the tail”.
